Values of other authors as cited in patent US6365176B1, “Nutritional supplement for patients with type 2 diabetes mellitus for lipodystrophy” (Functional Foods, Inc., priority 2000, dated 2002).

What was measured:
[1] = in vivo
[2] = doses between 200 and 1,000 μg daily

Row | Compound | glycemic index (GI) [1] | fasting plasma glucose concentrations [2]
1 | O=C(CO)[C@@H](O)[C@H](O)[C@H](O)CO [Fructose] | 32 | –
2 | chromium picolinate [Chromium as picolinate] | – | beneficial effect
